From patent US11426441B2, “Composition comprising protein phosphatase 1 inhibitory peptide for treating vascular diseases” (BethphaGen Inc., priority 2016, dated 2022)
No end group written: not given here.

Columns and labels:
[1] = test system: cytosolic Ca^2+ level; test: Intracellular Ca2+ measurement in RASMCs; type: cell-based, rat; conditions: 10% FBS, 3 μM peptide
Procedure: FIGS. 4a, 4b, 4c and 4d. (4a-4c) HCSMCs were pretreated with 3 μM ψPLB-SE and 15 μM MDL28170 for 1 hour, and then treated with 50 μM A23187 for 2 hours. (4a) Immunostaining was performed with antibodies against SERCA2a and SERCA2b (green). Nuclei were stained with Hoechst (blue). Representative merged images are shown. Scale bar, 50 μm. (4b) Western blot analysis was performed with cell extracts. Data are expressed as the means±SD (n=3-4; *, P<0.05). (4c) Baseline Ca^2+ concentration was measured by lonOptix calcium imaging system. (4d) RASMC were treated with ψPLB-SE or control peptide under the same conditions as described for FIG. 1B. The baseline Ca^2+ concentration was measured by lonOptix calcium imaging system (*, P<0.05).
The intracellular Ca^2+ level was measured in VSMCs by loading cells with 0.5 μM Fura2-AM (Molecular Probes, Eugene Oreg., USA), a Ca^2+-sensitive indicator, for 15 minutes at 37. The fluorescence was recorded using the lonOptix calcium imaging system. VSMCs were stimulated by the exposure to light emitted by a 75 W halogen lamp through either a 340 nm or 380 nm filter. The fluorescent emissions were detected between 480 nm and 520 nm by a photomultiplier tube after an initial illumination at 340 nm for 0.5 second and then at 380 nm during recording. […]

[2] = test system: eNOS and Akt; test: eNOS and Akt phosphorylation in PAECs (western blotting); type: cell-based
Procedure: FIGS. 16a, 16b and 16c. (16a-16b) PAECs were treated with 3 μM ψPLB-SE for 1 hour, and protein expression was quantitatively analyzed through western blotting using antibodies against Phospho-eNOS (ser1177), total eNOS, phospho-Akt (Ser473, Thr308), total Akt, and GAPDH. (16c) The pulmonary tissue lysate was subjected to immunoprecipitation using PP1 antibody to investigate the interactions of PP1 with eNOS and Akt depending on the presence or absence of the treatment with ψPLB-SE using respective antibodies therefor.
FIGS. 17a, 17b and 17c. (17a) PAECs were treated with 50 μM LY294002, a PI3K inhibitor, for 24 hours, and then treated with 3 μM ψPLB-SE for 1 hour. Protein expression was quantitatively analyzed through western blotting using antibodies against Phospho-eNOS (ser1177), total eNOS, phospho-Akt (Ser473, Thr308), total Akt, and GAPDH. (17b) PAECs were treated with 10 μM inhibitor IV, an Akt inhibitor, for 2 hours, and then treated with 3 μM ψPLB-SE for 1 hour. Protein expression was quantitatively analyzed through western blotting using antibodies against total eNOS and GAPDH. (17c) PAECs were treated with 100 nM OA, a PP1 inhibitor, for 24 hours, and then treated with 3 μM ψPLB-SE for 1 hour. Protein expression was quantitatively analyzed through western blotting using antibodies against Phospho-eNOS (ser1177), total eNOS, phospho-Akt (Ser473, Thr308), total Akt, and GAPDH.
ψPLB-SE (RAE16TIEMPQ; SEQ ID NO: 2) was derived from the PLB protein sequence surrounding the Ser16 phosphorylation site. To facilitate uptake into cells, the peptide was conjugated to the cell penetrating peptide dNP2 ([…]; SEQ ID NO: 21) or TAT (YGRKKRRQRRR; SEQ ID NO: 22). The peptides used in the present invention were PLB-SE (RAETIEMPQ; SEQ ID NO: 2) and control peptide (RASTIEMPQ; SEQ ID NO: 23). PLB-SE and cell penetrating peptide were connected by a linker peptide (GGG; SEQ ID NO: 24) The peptides (purity of 95% or higher, AnyGen, Gwangju, Korea) was resuspended in double-distilled water or physiological saline at a stock concentration of 3 mM (cells), 2.5 mg/ml (rats), or 500 μg/ml (mice). The rats were treated with 1 mg/kg peptides and mice were treated with 2 mg/kg peptides. The rat aortic smooth muscle cells (RASMCs), human coronary smooth muscle cells (HCSMCs), pulmonary arterial endothelial cells (PAECs), and pulmonary arterial smooth muscle cells (PASMCs) were treated with the peptides at a final concentration of 3 μM for 1 hour. The PI3K inhibitor LY294002 (Millipore, USA), the Akt inhibitor Inhibitor IV (Calbiochem, USA), and the PP1 inhibitor okadaic acid (Sigma Aldrich, USA), used in the experiments using pulmonary arterial endothelial cells (PAECs), were purchased. For the monocrotaline aqueous solution, the monocrotaline powder (Sigma Aldrich, USA) was dissolved in a small amount of a 1 M hydrochloric acid solution (HCL), diluted with sterilized distilled water, and adjusted to pH 7.35 by addition of sodium hydroxide (NaOH). The animals were bred and observed in the same conditions as in the control group during the experiment periods. In addition, the calcium ionophore A23187 and the calpain I and II inhibitors MDL28170 and […] were purchased from Sigma-Aldrich (St. Louis, Mo., USA).
Vascular smooth muscle cells (VSMCs) were homogenized in a minimal volume of 50 mM Tris-HCl, pH 7.4, supplemented with a broad-spectrum protease inhibitor cocktail (Calbiochem). The proteins were separated by SDS-PAGE and then transferred to polyvinylidene fluoride membranes (Schleicher & Schuell). After blocking with 5% (w/v) non-fat milk for 1 hour and washing with TBST, the membranes were incubated with antibodies against SERCA2a, SERCA2b (21st century biochemical), PCNA (abcam), GAPDH (Sigma-Aldrich), phospho-eNOS, eNOS, phospho-eIF2α, eIF2α (cell signaling), Vimentin, α-SMA, BMPR2 (Santa cruz), phospho-Akt, Akt (cell signaling), phospho-phospholamban (Merck), and Phospholamban (cell signaling). […]

## RAETIEMPQ (not fully specified) [ψPLB-SE, 9-mer PP1 decoy peptide mimicking phosphorylated PLB; conjugated via GGG linker to cell penetrating peptide dNP2 or TAT]
[1]
  cytosolic Ca^2+ level elevated under synthetic conditions: decreased
[2]; 100 nM okadaic acid followed by ψPLB-SE
  phosphorylation of Akt and eNOS: further increased
[2]; 3 μM for 1 hour
  phosphorylation of Akt serine 473 and threonine 308: increased
  phosphorylation of eNOS serine 1177: increased
  phosphorylation of eNOS threonine 495: reduced
[2]; Inhibitor IV 10 μM then ψPLB-SE
  eNOS phosphorylation: did not increase
[2]; LY294002 50 μM followed by ψPLB-SE
  phosphorylation of eNOS and Akt: increased
